{
  "source": "paper PMC10714400",
  "about": "“Antimicrobial Peptide–Peptoid Hybrids with and without Membrane Disruption” (ACS Infectious Diseases, 2023)",
  "key": {"PA14 4.18 (pmrB)": {"test_system": "PA14 4.18 (pmrB)", "settings": "CSV; […] MH at pH 8.5", "description": "(§1) Antimicrobial activity was assayed for all the peptide–peptoids against P. aeruginosa PAO1, K. pneumoniae NCTC418, E. coli W3110, A. baumannii ATCC 19606, methicillin-resistant S. aureus COL (MRSA), and for selected peptides on P. aeruginosa PA14 and the polymyxin-B-resistant derivatives PA14 4.13, PA14 4.18, PA14 2P4, as well as the clinical isolates ZEM-1A and ZEM9A, K. pneumoniae OXA-48, S. aureus Newman, Enterobacter cloacae, Stenotrophomonas maltophilia, Burkholderia cenocepacia, and Staphylococus epidermidis. To determine the Minimal Inhibitory Concentration (MIC), the Broth Microdilution method was used.[72] A colony of bacteria was picked and grown in LB medium overnight at 37 °C.\n(§2) To each well was finally added 4 μL of the diluted bacterial suspension (see above), corresponding to approximately 5 × 10^5 CFU. For each test, two columns of the plate were kept for sterility control (medium only), growth control (medium with bacterial inoculum, no compound). The positive control, Polymyxin B (starting with a concentration of 16 μg/mL) in MH medium with bacterial inocula, was introduced in the two lines of the plate. The plates were incubated at 37 °C for ca. 18 h under static conditions. Next, 15 μL of 3-(4,5-dimethylthiazol-2-yl)-2,5-diphenyltetrazolium bromide (MTT)[73] (1 mg/mL in sterilized MilliQ deionized water) were added to each well, and the plates were incubated for 20–30 min at room temperature. The minimal inhibitory concentration (MIC) was defined as the lowest concentration of the compound that inhibits the visible growth of the tested bacteria (yellow) with the unaided eye."}, "PA14 2P4 (pmrB)": {"test_system": "PA14 2P4 (pmrB)", "settings": "CSV; […] MH at pH 8.5", "description": "as §1, §2"}, "E. coli W3110": {"test_system": "E. coli W3110", "description": "as §1, §2"}, "P. aeruginosa PAO1": {"test_system": "P. aeruginosa PAO1", "description": "as §1, §2"}, "K. pneumoniae NCTC418": {"test_system": "K. pneumoniae NCTC418", "description": "as §1, §2"}, "A. baumannii ATCC19606": {"test_system": "A. baumannii ATCC19606", "description": "as §1, §2"}, "PA14 4.13 (phoQ)": {"test_system": "PA14 4.13 (phoQ)", "settings": "[…] MH at pH 8.5", "description": "as §1, §2"}, "S. aureus COL (MRSA)": {"test_system": "S. aureus COL (MRSA)", "description": "as §1, §2"}, "[1]": {"experiment": "Circular dichroism, α-helical content", "type": "physicochemical", "settings": "0.1 mg/mL; for CD %α with 5 mM DPC: 10 mM phosphate buffer pH 7.4, 5 mM DPC; for CD %α with 20% TFE: 10 mM phosphate buffer pH 7.4, 20% TFE"}, "S. aureus Newman": {"test_system": "S. aureus Newman", "settings": "Table S3; […] MH at pH 8.5", "description": "as §1\nas §2, with “The plates were incubated at 37 °C for ca. 18 h under static conditions.” left out"}, "P. aeruginosa PA14": {"test_system": "P. aeruginosa PA14", "settings": "Table S3; […] MH at pH 8.5, 16-20 hours at 37 °C", "description": "as §1\nas §2, with “The plates were incubated at 37 °C for ca. 18 h under static conditions.” left out"}, "[2]": {"test_system": "human red blood cells (hRBC)", "experiment": "Minimum hemolytic concentration (MHC)", "type": "cell-based", "source_text": "We also measured minimal hemolysis concentrations (MHC) on human red blood cells by serial 2-fold dilution as an indication of toxicity against eukaryotic cells (Table 1)."}},
  "note": "Where a SMILES comes first, the peptide text is derived from it. [ ]: non-standard residue; d: D form. Nleu = CC(C)CNCC(=O)O",
  "data": [
    {"smiles": "CC(C)C[C@H](NC(=O)[C@H](CC(C)C)NC(=O)[C@H](CCCCN)NC(=O)[C@@H](N)CCCCN)C(=O)N[C@@H](CCCCN)C(=O)N[C@@H](CC(C)C)C(=O)N[C@@H](CC(C)C)C(=O)N[C@@H](CCCCN)C(=O)N(CC(=O)N(CC(=O)N(CC(N)=O)CC(C)C)CC(C)C)CC(C)C", "note": "[EB3] (H-KKLLKLLK[Nleu][Nleu][Nleu]-NH2)", "values": [
      {"measurement": "MIC P. aeruginosa PA14 4.18, […] MH at pH 8.5", "setting": "PA14 4.18 (pmrB)", "result": 8, "unit": "ug/mL"},
      {"measurement": "MIC P. aeruginosa PA14 2P4, […] MH at pH 8.5", "setting": "PA14 2P4 (pmrB)", "result": 16, "unit": "ug/mL"},
      {"measurement": "MIC E. coli W3110, […] MH at pH 7.4", "setting": "E. coli W3110; CSV, […] MH at pH 7.4", "result": 4, "unit": "ug/mL"},
      {"measurement": "MIC E. coli W3110, […] MH at pH 8.5", "setting": "E. coli W3110; CSV, […] MH at pH 8.5", "result": 3, "unit": "ug/mL"},
      {"measurement": "MIC E. coli W3110, full MH at pH 7.4", "setting": "E. coli W3110; CSV, full MH at pH 7.4", "result": ">32", "unit": "ug/mL"},
      {"measurement": "MIC E. coli W3110 […] 7.4", "setting": "E. coli W3110; Table S2, […] MH, pH 7.4", "result": 4, "unit": "µg/mL"},
      {"measurement": "MIC E. coli W3110 […] 8.5", "setting": "E. coli W3110; Table S2, […] MH, pH 8.5", "result": "2 to 4", "unit": "µg/mL"},
      {"measurement": "MIC E. coli W3110 Full MH 7.4", "setting": "E. coli W3110; Table S2, full MH, pH 7.4", "result": "> 32", "unit": "µg/mL"},
      {"measurement": "MIC E. coli W3110 Full MH 8.5", "setting": "E. coli W3110; Table S2, full MH, pH 8.5", "result": 16, "unit": "µg/mL"},
      {"measurement": "MIC P. aeruginosa PAO1, full MH at pH 7.4", "setting": "P. aeruginosa PAO1; PAO1, 4 h, pH 7.4", "result": ">32", "unit": "ug/mL"},
      {"measurement": "MIC P. aeruginosa PAO1, full MH at pH 8.5", "setting": "P. aeruginosa PAO1; PAO1, 4 h, pH 8.5", "result": 16, "unit": "ug/mL"},
      {"measurement": "MIC P. aeruginosa PAO1 […] 7.4", "setting": "P. aeruginosa PAO1; Table S2, […] MH, pH 7.4", "result": 16, "unit": "µg/mL"},
      {"measurement": "MIC P. aeruginosa PAO1 […] 8.5", "setting": "P. aeruginosa PAO1; Table S2, […] MH, pH 8.5", "result": 4, "unit": "µg/mL"},
      {"measurement": "MIC P. aeruginosa PAO1 Full MH 7.4", "setting": "P. aeruginosa PAO1; Table S2, full MH, pH 7.4", "result": "> 32", "unit": "µg/mL"},
      {"measurement": "MIC P. aeruginosa PAO1 Full MH 8.5", "setting": "P. aeruginosa PAO1; Table S2, full MH, pH 8.5", "result": 16, "unit": "µg/mL"},
      {"measurement": "MIC K. pneumoniae NCTC418, full MH at pH 7.4", "setting": "K. pneumoniae NCTC418; NCTC418, 4 h, pH 7.4", "result": ">32", "unit": "ug/mL"},
      {"measurement": "MIC K. pneumoniae NCTC418 […] 7.4", "setting": "K. pneumoniae NCTC418; Table S2, […] MH, pH 7.4", "result": "> 32", "unit": "µg/mL"},
      {"measurement": "MIC K. pneumoniae NCTC418 […] 8.5", "setting": "K. pneumoniae NCTC418; Table S2, […] MH, pH 8.5", "result": 16, "unit": "µg/mL"},
      {"measurement": "MIC K. pneumoniae NCTC418 Full MH 7.4", "setting": "K. pneumoniae NCTC418; Table S2, full MH, pH 7.4", "result": "> 32", "unit": "µg/mL"},
      {"measurement": "MIC K. pneumoniae NCTC418 Full MH 8.5", "setting": "K. pneumoniae NCTC418; Table S2, full MH, pH 8.5", "result": 32, "unit": "µg/mL"},
      {"measurement": "MIC A. baumannii ATCC19606, full MH at pH 7.4", "setting": "A. baumannii ATCC19606; ATCC19606, 4 h, pH 7.4", "result": ">32", "unit": "ug/mL"},
      {"measurement": "MIC A. baumannii ATCC19606, full MH at pH 8.5", "setting": "A. baumannii ATCC19606; ATCC19606, 4 h, pH 8.5", "result": ">32", "unit": "ug/mL"},
      {"measurement": "MIC A. baumannii ATCC19606 […] 7.4", "setting": "A. baumannii ATCC19606; Table S2, […] MH, pH 7.4", "result": 32, "unit": "µg/mL"},
      {"measurement": "MIC A. baumannii ATCC19606 […] 8.5", "setting": "A. baumannii ATCC19606; Table S2, […] MH, pH 8.5", "result": 16, "unit": "µg/mL"},
      {"measurement": "MIC A. baumannii ATCC19606 Full MH 7.4", "setting": "A. baumannii ATCC19606; Table S2, full MH, pH 7.4", "result": "> 32", "unit": "µg/mL"},
      {"measurement": "MIC A. baumannii ATCC19606 Full MH 8.5", "setting": "A. baumannii ATCC19606; Table S2, full MH, pH 8.5", "result": "> 32", "unit": "µg/mL"},
      {"measurement": "MIC P. aeruginosa PA14 4.13, […] MH at pH 8.5", "setting": "PA14 4.13 (phoQ); CSV", "result": 6, "unit": "ug/mL"},
      {"measurement": "MIC P. aeruginosa PA14 4.13", "setting": "PA14 4.13 (phoQ); Table S3", "result": "4 to 8", "unit": "µg/mL"},
      {"measurement": "MIC S. aureus COL (MRSA), full MH at pH 7.4", "setting": "S. aureus COL (MRSA); COL, 4 h, pH 7.4", "result": ">32", "unit": "ug/mL"},
      {"measurement": "MIC S. aureus COL (MRSA), full MH at pH 8.5", "setting": "S. aureus COL (MRSA); COL, 4 h, pH 8.5", "result": 32, "unit": "ug/mL"},
      {"measurement": "MIC S. aureus COL (MRSA) […] 7.4", "setting": "S. aureus COL (MRSA); Table S2, […] MH, pH 7.4", "result": 32, "unit": "µg/mL"},
      {"measurement": "MIC S. aureus COL (MRSA) […] 8.5", "setting": "S. aureus COL (MRSA); Table S2, […] MH, pH 8.5", "result": 8, "unit": "µg/mL"},
      {"measurement": "MIC S. aureus COL (MRSA) Full MH 7.4", "setting": "S. aureus COL (MRSA); Table S2, full MH, pH 7.4", "result": "> 32", "unit": "µg/mL"},
      {"measurement": "MIC S. aureus COL (MRSA) Full MH 8.5", "setting": "S. aureus COL (MRSA); Table S2, full MH, pH 8.5", "result": 32, "unit": "µg/mL"},
      {"measurement": "CD %α with 5 mM DPC", "setting": "[1]; DichroWeb, Contin-LL", "result": 13, "unit": "%"},
      {"measurement": "CD %α with 20% TFE", "setting": "[1]; DichroWeb, Contin-LL", "result": 15, "unit": "%"},
      {"measurement": "CD %α with 5 mM DPC", "setting": "[1]; Table S2", "result": 13, "unit": "%"},
      {"measurement": "CD %α with 20% TFE", "setting": "[1]; Table S2", "result": 15, "unit": "%"},
      {"measurement": "MIC S. aureus Newman", "setting": "S. aureus Newman", "result": 4, "unit": "µg/mL"},
      {"measurement": "MIC P. aeruginosa PA14", "setting": "P. aeruginosa PA14", "result": 4, "unit": "µg/mL"},
      {"measurement": "Hemolysis", "setting": "[2]", "result": "none of them showed any measurable hemolysis"},
      {"measurement": "MHC", "setting": "[2]", "result": ">2000", "unit": "µg/mL"}
    ]}
  ]
}
